Experimental data published in patent publication US20240109912A1, “TRICYCLIC PYRIMIDINES AS CYCLIN-DEPENDENT KINASE 7 (CDK7) INHIBITORS” (JANSSEN PHARMACEUTICA NV, priority 2020, published 2024).
Several values for one entry are separate records, joined by “and”; a condition that tells them apart may be missing. Identical values can stand only once. Like-named read-outs stand apart in the source and are kept apart here.

Columns and labels:
[1] = molecular target: CDK7/cyclinH/MAT1 trimeric complex (Homo sapiens (Human), UniProt P50613); experiment: In vitro CDK7 assay, potency of irreversible covalent inhibitors (kinact/KI)
[2] = test system: RNA polymerase II Serine 5 phosphorylation (CDK7) in A549 cells
[3] = test system: RNA polymerase II Serine 5 phosphorylation in A549 cells overexpressing CDK7 mutant (C312S); experiment: Imaging-based cellular RNA PolII Ser5 phosphorylation assay in A549 cells overexpressing CDK7-mutant (C312S); type: cell-based, human; conditions: for IC50: Homo sapiens, A549, A549 cells overexpressing CDK7 mutant (C312S), read-out: CDK7_ A549 mutant hCDK7(pIC50) (converted); for CDK7_ A549 mutant hCDK7(pIC50): A549 cells overexpressing CDK7 mutant (C312S)
In short: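 A stably transduced A549 pool overexpressing CDK7 C312S, a mutant that blocks covalent binding at Cys312, while retaining endogenous wild-type CDK7 was used. Ser5 phosphorylation was measured by imaging, and IC50 values were derived.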

[4] = CDK7 (20 nM enz.) (KI, μM), 20 nM enz.
[5] = read-out: CDK7 (20 nM enz.) (kinact, s^−1), 20 nM enz.
[6] = read-out: CDK7 (20 nM enz.) (kinact/ KI, M^−1*s^−1), 20 nM enz.
[7] = read-out: CDK7 (kinact, s^−1), Table B
[8] = read-out: CDK7 (kinact/KI, M^−1*s^−1), Table B
[9] = read-out: CDK7 (20 nM enz.) (kobs/[I], M^−1*s^−1), 20 nM enz.

Sequence of CDK7/cyclinH/MAT1 trimeric complex (P50613 whole entry): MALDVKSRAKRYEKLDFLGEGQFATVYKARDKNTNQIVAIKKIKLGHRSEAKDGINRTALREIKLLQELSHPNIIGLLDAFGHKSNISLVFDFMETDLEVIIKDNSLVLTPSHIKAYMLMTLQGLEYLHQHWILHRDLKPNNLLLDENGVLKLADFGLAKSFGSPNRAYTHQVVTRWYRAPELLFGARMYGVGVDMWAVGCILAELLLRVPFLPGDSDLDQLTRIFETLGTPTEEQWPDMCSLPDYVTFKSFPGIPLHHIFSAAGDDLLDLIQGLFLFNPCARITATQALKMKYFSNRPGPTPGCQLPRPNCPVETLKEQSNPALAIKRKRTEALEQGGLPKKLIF
Sequence of CDK7/cyclinH/MAT1 trimeric complex (P51946 whole entry partner): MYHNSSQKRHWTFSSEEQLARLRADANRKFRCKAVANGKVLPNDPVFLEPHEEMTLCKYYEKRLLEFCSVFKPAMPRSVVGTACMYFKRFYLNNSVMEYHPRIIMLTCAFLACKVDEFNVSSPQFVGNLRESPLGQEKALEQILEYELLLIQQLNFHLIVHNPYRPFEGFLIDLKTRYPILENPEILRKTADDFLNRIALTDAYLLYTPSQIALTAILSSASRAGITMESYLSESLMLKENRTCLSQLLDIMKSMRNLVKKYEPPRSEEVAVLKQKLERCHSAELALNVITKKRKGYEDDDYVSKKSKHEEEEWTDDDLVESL
Sequence of CDK7/cyclinH/MAT1 trimeric complex (P51948 whole entry partner): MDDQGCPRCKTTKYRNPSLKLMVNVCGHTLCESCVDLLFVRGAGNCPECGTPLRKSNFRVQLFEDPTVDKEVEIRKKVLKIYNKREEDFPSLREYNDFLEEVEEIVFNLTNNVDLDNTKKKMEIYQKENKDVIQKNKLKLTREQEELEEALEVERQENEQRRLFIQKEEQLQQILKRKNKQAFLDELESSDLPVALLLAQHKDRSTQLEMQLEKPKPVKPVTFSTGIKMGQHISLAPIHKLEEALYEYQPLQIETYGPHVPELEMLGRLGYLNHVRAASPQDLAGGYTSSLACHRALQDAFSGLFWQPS

Structure (SMILES)	melting point	Ki [1, 4]	kinact [1, 5]	kinact/KI [1, 6]	IC50 [2]	IC50 [3]	Ki ([1]; CDK7 (KI(μM)), Table B)	CDK7 (kinact, s^−1) ([1]; Table B)	CDK7 (kinact/KI, M^−1*s^−1) ([1]; Table B)	kinact [1, 7]	kinact/KI [1, 8]	kinact/KI [1, 9]	CDK7 (20 nM enz.) (kinact, s^−1) ([1]; 20 nM enz.)	CDK7 (20 nM enz.) (kinact/ KI, M^−1*s^−1) ([1]; 20 nM enz.)	CDK7_ A549 mutant hCDK7(pIC50) [3]
C=CC(=O)N1CCC(N2CC(c3cc4c(c(C5CC5)c3)O[C@@H](C)c3c(ncnc3N3CCS(=O)(=O)CC3)N4)C2)C1 (mixture of isomers) [compound 97]	220 °C	0.0068 µM	2.76e-05 s⁻¹	4030 M⁻¹ s⁻¹	234 nM	> 10000 nM									
C=CC(=O)N1CC(N2CC[C@H](c3ccc4c(c3)Nc3ncnc(N5CCOCC5)c3CO4)[C@H](C)C2)C1 (single isomer, unassigned) [compound 37]	217 °C				912 nM and 676 nM	> 10000 nM	0.164 µM and 0.152 µM	7.29e-05 s⁻¹	478.485 M⁻¹ s⁻¹	0.000137 s⁻¹	832 M⁻¹ s⁻¹				
C=CC(=O)N1CC(N2CCC(c3cc(F)c4c(c3)Nc3ncnc(N5CCOCC5)c3[C@@H](C)O4)CC2)C1 (single isomer, unassigned) [compound 46]	175 °C	0.094 µM	5.18e-05 s⁻¹	667 M⁻¹ s⁻¹	209 nM	> 10000 nM									
C=CC(=O)N1CC(N2CCC(c3cc(F)c4c(c3)Nc3ncnc(N5CCOCC5)c3[C@H](C)O4)CC2)C1 (single isomer, unassigned) [compound 49]	180 °C	0.118 µM	5.65e-05 s⁻¹	478 M⁻¹ s⁻¹	178 nM	> 10000 nM									
C=CC(=O)N1CC(N2CCC(c3cc(F)c4c(c3)Nc3ncnc(-c5cnn(C)c5)c3[C@@H](C)O4)CC2)C1 (single isomer, unassigned) [compound 52]	245 °C	0.0825 µM	5.9e-05 s⁻¹	714 M⁻¹ s⁻¹	123 nM	> 10000 nM									
C=CC(=O)N1CC(N2CCC(c3cc(F)c4c(c3)Nc3ncnc(-c5cnn(C)c5)c3[C@H](C)O4)CC2)C1 (single isomer, unassigned) [compound 53]	260 °C				> 10000 nM	> 10000 nM						3.8 M⁻¹ s⁻¹			
C=CC(=O)N1CC(N2CCC(c3cc4c(cn3)O[C@H](C)c3c(ncnc3N3CCOCC3)N4)CC2)C1 (single isomer, unassigned) [compound 60]	250 °C	0.283 µM			257 nM								5.21e-05 s⁻¹	184.255 M⁻¹ s⁻¹	<5
C=CC(=O)N1CC(N2CCC(c3ccc4c(c3)Nc3ncnc(N5CCOCC5)c3[C@H](CC)O4)CC2)C1 (single isomer, unassigned) [compound 75]	123 °C	0.265 µM	3.84e-05 s⁻¹	145 M⁻¹ s⁻¹	646 nM	> 10000 nM									
C=CC(=O)N1CC(N2CCC(c3ccc4c(c3)Nc3ncnc(N5CCOCC5)c3[C@@H](CC)O4)CC2)C1 (single isomer, unassigned) [compound 76]	124 °C	0.457 µM	3.9e-05 s⁻¹	85.3 M⁻¹ s⁻¹	1660 nM	> 10000 nM									
C=CC(=O)N1CC(N2CCC(c3cc(C)c4c(c3)Nc3ncnc(N5CCS(=O)(=O)CC5)c3[C@@H](C)O4)CC2)C1 (single isomer, unassigned) [compound 84]	> 300 °C	0.148 µM	8.33e-05 s⁻¹	563 M⁻¹ s⁻¹	112 nM	> 10000 nM									
C=CC(=O)N1CC(N2CCC(c3cc4c(c(C)n3)O[C@H](C)c3c(ncnc3N3CCS(=O)(=O)CC3)N4)CC2)C1 (single isomer, unassigned) [compound 85]	240 °C				67.6 nM	> 10000 nM						725 M⁻¹ s⁻¹			
C=CC(=O)N1CC(N2CCC(c3cc4c(c(C)n3)O[C@@H](C)c3c(ncnc3N3CCS(=O)(=O)CC3)N4)CC2)C1 (single isomer, unassigned) [compound 86]	247 °C	0.117 µM	6.46e-05 s⁻¹	551 M⁻¹ s⁻¹	525 nM	> 10000 nM									
C=CC(=O)N1CC[C@@H](N2CC(c3cc4c(c(C5CC5)c3)OCc3c(ncnc3N3CCS(=O)(=O)CC3)N4)C2)C1 (single isomer, unassigned) [compound 93]	> 300 °C	0.277 µM	6.26e-05 s⁻¹	226 M⁻¹ s⁻¹	427 nM	> 10000 nM									
C=CC(=O)N1CC[C@H](N2CC(c3cc4c(c(C5CC5)c3)OCc3c(ncnc3N3CCS(=O)(=O)CC3)N4)C2)C1 (single isomer, unassigned) [compound 94]	167 °C	0.498 µM	8.53e-05 s⁻¹	171 M⁻¹ s⁻¹	537 nM	> 10000 nM									
C=CC(=O)N1CC[C@H](N2CC(c3cc4c(c(C5CC5)c3)O[C@H](C)c3c(ncnc3N3CCS(=O)(=O)CC3)N4)C2)C1 (single isomer, unassigned) [compound 95]	193 °C	0.0708 µM	2.35e-05 s⁻¹	332 M⁻¹ s⁻¹	~955 nM	> 10000 nM									
C=CC(=O)N1CC[C@@H](N2CC(c3cc4c(c(C5CC5)c3)O[C@H](C)c3c(ncnc3N3CCS(=O)(=O)CC3)N4)C2)C1 (single isomer, unassigned) [compound 96]	233 °C	0.0324 µM	2.16e-05 s⁻¹	665 M⁻¹ s⁻¹	525 nM	> 10000 nM									
C=CC(=O)N1CC[C@@H](N2CCC(c3cc(C)c4c(c3)Nc3ncnc(N5CCS(=O)(=O)CC5)c3CO4)CC2)C1 (single isomer, unassigned) [compound 114]	251 °C	0.0288 µM and 0.0678 µM	4.67e-05 s⁻¹	1620 M⁻¹ s⁻¹	51.3 nM and 28.2 nM	~10000 nM							8.94e-05 s⁻¹	1318 M⁻¹ s⁻¹	<5
C=CC(=O)N1CC[C@@H](N2CC(c3cc(C)c4c(c3)Nc3ncnc(N5CCS(=O)(=O)CC5)c3[C@@H](C)O4)C2)C1 (single isomer, unassigned) [compound 122]	237 °C	0.0292 µM			81.3 nM and 79.4 nM and 61.7 nM								4.85e-05 s⁻¹	1658.55 M⁻¹ s⁻¹ and 891.412 M⁻¹ s⁻¹	<5
C=CC(=O)N1CCC(N2CCC(c3ccc4c(c3)Nc3ncnc(N5CCOCC5)c3CO4)CC2)CC1 [compound 2]	211 °C	0.754 µM	6.34e-05 s⁻¹	98.7 M⁻¹ s⁻¹	331 nM and 324 nM	> 10000 nM	0.365 µM			0.000198 s⁻¹	543 M⁻¹ s⁻¹				
C=CC(=O)N1CC(C2CCN(c3ccc4c(c3)Nc3ncnc(N5CCOCC5)c3CO4)CC2)C1 [compound 7]	234 °C				6760 nM	> 10000 nM	1.79 µM			0.000178 s⁻¹	99.5 M⁻¹ s⁻¹				
C=CC(=O)N1CCC(N2CC(c3cc(C)c4c(c3)Nc3ncnc(N5CCOCC5)c3CO4)C2)CC1 [compound 14]	191 °C	0.183 µM	3.46e-05 s⁻¹	189 M⁻¹ s⁻¹	468 nM	> 10000 nM									
C=CC(=O)N1CCC(N2CC(c3cc(C)c4c(c3)Nc3ncnc(N5CCOCC5)c3CO4)C2)C1 (stereo not shown) [compound 16]	151 °C	0.192 µM	5.05e-05 s⁻¹	263 M⁻¹ s⁻¹	457 nM	> 10000 nM									
C=CC(=O)N1CC(N2CCC(c3cc(C)c4c(c3)Nc3ncnc(N5CCS(=O)(=O)CC5)c3[C@H](C)O4)CC2)C1 [compound 32]	> 300 °C	0.0249 µM	4.14e-05 s⁻¹	1660 M⁻¹ s⁻¹	~12.6 nM	> 10000 nM						1280 M⁻¹ s⁻¹			
C=CC(=O)N1CC(N2CCC(c3ccc4c(c3)Nc3ncnc(N5CCOCC5)c3CO4)CC2C)C1 (stereo not shown) [compound 34]	213 °C				1000 nM	> 10000 nM	0.258 µM			0.000186 s⁻¹	721 M⁻¹ s⁻¹				
C=CC(=O)N1CC(N2CCCC(c3ccc4c(c3)Nc3ncnc(N5CCOCC5)c3CO4)C2)C1 (stereo not shown) [compound 35]	175 °C				~7940 nM	> 10000 nM	2.05 µM			8.56e-05 s⁻¹	41.8 M⁻¹ s⁻¹				
C=CC(=O)N1CC(N2CC[C@@H](c3ccc4c(c3)Nc3ncnc(N5CCOCC5)c3CO4)[C@@H](C)C2)C1 [compound 36]	232 °C				741 nM and 479 nM	> 10000 nM	0.0803 µM and 0.233 µM	0.0001256 s⁻¹	539.8 M⁻¹ s⁻¹	8.19e-05 s⁻¹	1020 M⁻¹ s⁻¹				
C=CC(=O)N1CC(N2CCC(c3ccc4c(c3)Nc3ncnc(C5=CCOCC5)c3CO4)CC2)C1 [compound 39]	243 °C	0.61 µM	5.09e-05 s⁻¹	83.4 M⁻¹ s⁻¹	2240 nM	> 10000 nM									
C=CC(=O)N1CC(N2C3CCC2CC(c2ccc4c(c2)Nc2ncnc(N5CCOCC5)c2CO4)C3)C1 (stereo not shown) [compound 40]	212 °C	0.16 µM	5.56e-05 s⁻¹		437 nM	> 10000 nM								347 M⁻¹ s⁻¹	
